Measured values taken from patent US20140271573A1, “PHARMACO-CELLULAR THERAPEUTIC METHOD FOR THE TREATMENT OF MUSCULAR DYSTROPHIES” (PONTIFICIA UNIVERSIDAD CATÓLICA DE CHILE, priority 2013, published 2014).

Key:
Assay type in all cases: in vivo, mouse
mdx mice [1] = experiment: Contractile properties (isometric force) of isolated tibialis anterior muscle of mdx mice; details: isolated tibialis anterior of treated mdx mice, vs vehicle-treated mdx
Procedure: (§1) FIG. 6. Andrographolide increased skeletal muscle strength and exercise performance in mdx mice. 3 months old Wild Type (WT) and mdx mice were subjected to an exercise protocol for 3 months to augment the extent of muscle fibrosis. Along this period one group was treated with 1 mg/kg andrographolide or vehicle (i.p. injections 3 time per week, 6 animal per group). A) tibialis anterior muscles from wild-type (WT), Vehicle-treated mdx and andrographolide-treated mdx mice were isolated to evaluate isometric specific force (mN/mm2) at different stimulation frequencies (pulses per second, pps). B) Bar graph showing tetanic specific force. Values are represented as percentage of specific isometric force generated by Wild type muscle (*, P<0.05 relative to WT mice; #, P<0.05 relative to Vehicle-treated mdx mice). C) Bar graph showing twitch force (*, P<0.05 relative to WT mice; #, P<0.05 relative to Vehicle-treated mdx mice). D) Mice were subjected to an exercise challenge into the treadmill at 15 meters/min for 5 minutes and the number of stebacks was counted (*, P<0.05 relative to WT mice; #, P<0.05 relative to Vehicle-treated mdx mice).
Control or mdx (12 weeks old) male mice of C57BL/10 ScSn strain were studied. The animals were kept at room temperature with a […] night-day cycle and fed with pellets and water ad libitum. Experimental exercise was performed for running the mice in a treadmill for three times per week, 30 minutes each time at 12 m/min during 3 or 4 months (De Luca et al., 2005; De Luca et al., 2003). […]
The isometric force of isolated muscles were measured as described previously (Cabello-Verrugio et al., 2012). Briefly, optimum muscle length (Lo) and stimulation voltage were determined from micromanipulation of muscle length to produce maximum isometric twitch force. Maximum isometric tetanic force (Po) was determined from the plateau of the frequency-force relationship after successive stimulations at 1 to 200 Hz for 450 ms, with 2-minute rests between stimuli. […]

mdx mice [2] = experiment: Satellite cell graft into tibialis anterior of andrographolide pre-treated mdx mice
Procedure: FIG. 8. Muscle stem cell therapy with satellite cells is improved by reducing the muscle fibrosis by the treatment with andrographolide. A) 3 months old mdx mice were subjected to an exercise protocol for 4 months to augment the extent of muscle fibrosis. During this period one group was treated with andrographolide or vehicle (i.p. injections 3 time per week, 6 animal per group). 1 week after the last drug administration (7 month old mice), 500 freshly isolated satellite cells (SC) purified from WT mice were transplanted in both tibialis anterior muscle of each mdx mouse. 4 weeks after the engraftment the number of fibers expressing dystrophin and collagen I were determined by immunofluorescence on cryosections. The images are representative of 2 experimental group with 6 mice per group. B) Quantification of the data obtained in A showing the number of myofibers expressing dystrophin per tibialis anterior muscle in each case. C) The number of satellite cells (PAX-7 positive nuclei) were determined on isolated single muscle fibers from extensor digitoriumlongus muscle (EDL) in each case as indicative of the endogenous SC survival.
The isolation of single myofibers were prepared essentially as described (Kelly et al., 1995, Collins 2005), briefly extensor digitorium (EDL) and soleus muscles from 6 weeks old C57-BL10 mice were dissected and digested in 0.2% (w/v) collagenase type 1 (Sigma) in DMEM (Gibco) 4 mM L-glutathatmine (Sigma) and 1% penicillin and streptomycin solution (Sigma) for […] in a 37° C. water bath. After gentle muscle trituration only single and stretched myofibers were collected in DMEM. The myofibers were washed by serial transfers in 4 dishes (pre-coated with horse serum to prevent myofiber attachment) containing DMEM. The myofibers were finally collected in DMEM containing 10% FBS, 10% horse serum, 0.5% chick embryo extract and 5 ng/ml of FGF-2 (R&D) and cultured for 30 min in a 5% CO2 cell culture incubator.
Satellite cells were separated from the myofibers by physical trituration using the method of Collins et al (2005). Briefly, the isolated intact fibers were suspended in 10 ml of complete medium and triturated with a 19 G needle mounted on a 1 ml syringe. The suspension was sequentially passed through a 70 um and 40 um cell sieve (Falcon) to remove debris. The satellite cell suspension was centrifuged for 15 min at 450 RCF. The pellet was resuspended in physiologic serum (NaCl 0.9%). An aliquot was stained with Hoechst 1 ug/ml and cholera toxin sub unit B conjugated to Alexa Fluor 488 (Invitrogen) 1 ug/ml for 5 minutes, washed with PBS and incubated with trypan blue. The double stained cells that exclude the trypan blue were counted in a hemocytometer as viable cells. The concentration of cells was adjusted to 25 cell/μl. […]

mdx mice [3] = experiment: Treadmill running test (step backs) in mdx mice; details: treated mdx mice, treadmill at 15 m/min
Procedure: as §1
Mice were subjected to a running test during […] at 15 m/min in a treadmill. The number of times that mice were retarded (step backs) to the first ⅓ of the moving platform was counted (Cabello-Verrugio et al., 2012).

C=C1CC[C@@H]2[C@](C)(CO)[C@H](O)CC[C@@]2(C)[C@@H]1C/C=C1/C(=O)OC[C@H]1O [andrographolide]
generation of isometric force (mdx mice [1]; frequencies between 50 and 100 Hz): significant increase | tetanic force (mdx mice [1]): significant increase | twitch force (mdx mice [1]): significant increase | increase in number of dystrophin positive fibers compared to controls (mdx mice [2]; mdx mice pre-treated with andrographolide, 500 WT satellite cells grafted per tibialis anterior, one month after transplantation): 3 times | collagen-I content after satellite cell transplantation (mdx mice [2]; mdx mice pre-treated with andrographolide, one month after transplantation, immunofluorescence): clear reduction | change in number of satellite cells present on isolated EDL myofibers (mdx mice [2]; same transplanted mdx mice, PAX-7 positive nuclei, endogenous satellite cells): no changes | mean satellite cells per EDL myofiber (mdx mice [2]; same transplanted mdx mice, no change between treated and untreated): 12.5 satellite cells per EDL myofiber | number of stepbacks at the treadmill (mdx mice [3]): decreased
